Test results taken from patent US12414960B2, “Analogues of oleuropein and oleacein and uses thereof” (Attica Sciences Ltd., priority 2020, dated 2025).

Assays:
Type in all cases: biochemical
Details in all cases: NS = not statistically significant
[1] = ABTS radical cation scavenging assay
Excerpt: The method of estimating antioxidant capacity, based on the ability to interact with the ABTS.+ radical cation was first performed by Miller et al. in 1993 (Miller, Nicholas et al., Clinical Science, 1993, 84: 407-412, “A novel method for measuring the antioxidant capacity and its application to monitoring the antioxidant status in premature neonates”). The mechanism of interaction of the antioxidant agents to be examined with the ABTS.+ radical is similar to that of the DPPH. radical, which can be inactivated either by the addition of an electron or by the addition of a hydrogen atom. However, unlike the DPPH. radical, which is a stable radical from the beginning, the ABTS.+ radical must be produced by the oxidation of ABTS. Thus, in order to estimate the antioxidant capacity of a substance, the formation of the ABTS.+ radical must first precede and the addition of the substance to be examined must follow. The addition of the antioxidant agent is performed after the production of the root ABTS.+ to avoid the interaction of the antioxidant agents with the oxidizing agents used for the oxidation of ABTS.
The oxidation of ABTS takes place either through chemical reactions with various reagents or through the action of enzymes such as peroxidases. The ABTS.+ radical from the moment it is formed is stable, has a green color and absorbs at 730 nm. When a substance with antioxidant activity is added to the solution, then the ABTS.+ radical is reduced by the addition of a hydrogen (or electron) atom, resulting in reduced visual absorption.
To assess the antioxidant capacity of the samples, the oxidation of ABTS was performed enzymatically through the action of horseradish peroxidase (HRP), in the presence of H2O2 (FIG. 3)
The anti-oxidant capacity of the GS compounds was evaluated by performing the ABTS assay as previously described (Kouka, Paraskevi et al., Oxid Med Cell Longev. 2019, Article ID 1870965). Briefly, in a total reaction volume of 1 mL in distilled water (dH2O), ABTS.^+ (1 mM), H2O2 (30 μM), and horseradish peroxidase (HRP) (6 μM) in 50 mM phosphate-buffered saline were added. The solution was incubated for 45 min at room temperature (RT) in the dark. Finally, 10 μL of the tested GS compound at various concentrations was added, and the absorbance was monitored on a Hitachi U-1900 radio beam spectrophotometer (serial no. 2023-029; Hitachi Ltd.) at 730 nm. In each experiment, a blank without the HRP was used, while the ABTS.^+ radical solution without the extract was used as the control. The RSC percentage of the tested extracts was calculated using the following equation: RSC (%)=[(ODcontrol−ODcompound)/ODcontrol]×100, where ODcontrol and OD sample are the optical density (OD) values of the control and the test sample, respectively.

[2] = Superoxide anion radical scavenging assay (NBT reduction)
Excerpt: These radicals may also play an important role in the peroxidation of unsaturated fatty acids and possibly other susceptible substances.
Under aerobic conditions, superoxide anion radicals are generated nonenzymatically in a NADH-PMS system by oxidation of […] (NADH) with phenazine methosulphate (PMS) in the presence of dissolved oxygen. (See, Nimse, Satish B. et al., RSC Adv, 2015, 5: 27986, “Free radicals, natural antioxidants, and their reaction mechanisms”). The superoxide anion radical O2.^− reduces the pale yellow colored nitroblue tetrazolium cation (NBT^2+) to a blue colored formazan dye, which is measured spectrophotometrically at 560 nm. The decrease of absorbance at 560 nm with antioxidant indicates the consumption of […] in the reaction mixture (FIG. 4).
The superoxide anion radical scavenging activity of each GS compound was determined using the nitro-blue tetrazolium (NBT) reduction method (Cos, Paul et al., J Nat Prod. 1998; 61(1): 71-76). The results were calculated as the percentage of inhibition according to the following formula: I (%)=100 [1−(S−SB)/(C−CB)] Where S, SB, C, and CB are the absorbance of the sample, the blank sample, the control, and the blank control, respectively.

[3] = target: topoisomerase Type I; assay: Plasmid relaxation assay
Excerpt: Topoisomerases are nuclear enzymes that play essential roles in DNA replication, transcription, chromosome segregation, and recombination. Type I topoisomerases (classified into three distinct subfamilies—Type IA, IB, and IC based on structural considerations) are enzymes which make single-stranded cuts in DNA. DNA topoisomerases are important targets of approved and experimental anti-cancer agents. The protocol described here are of assays used to assess the ability of GS compounds to inhibit topoisomerase Type I activity based on relaxation of supercoiled DNA.
Plasmid DNA is a circular double-stranded DNA molecule that is mainly found in bacteria and has the ability to self-replicate on its own. Bacteria may have one or more copies of plasmid DNA that help them survive adverse conditions, as they usually carry antibiotic resistance genes. Even with the help of plasmids being transferred from bacterium to bacterium, it is possible to transfer information that contributes to their survival.
When plasmid DNA runs in an electrophoresis gel it appears mainly in three configurations: (1) The supercoiled conformation, in which the plasmid is intact (without fractures), is its most compact form; (2) The open circular, relaxed conformation, to which it goes when single-stranded fractures are caused. This is caused either from enzymatic or other factors (e.g., free radicals) that have the ability to cause DNA breakage; (3) The linear configuration to which it goes when it has double-stranded fractures. These configurations run at different speeds in an electrophoresis gel. The smaller the configuration, the faster it penetrates the agarose pores. […]
The ability of GS compounds to inhibit topoisomerase Type I activity was assessed based on the relaxation of supercoiled DNA as previously described (Kouka, Paraskevi et al., Oxid Med Cell Longev. 2019, Article ID 1870965). […] Finally, the gels were exposed to UV, the MultiImage Light Cabinet (Alpha Innotech, San Leandro, CA, USA) was used to capture the gel photos, and the results were analyzed with the Alpha View suite. […]

Structure (SMILES) | ABTS Radical Cation Scavenging Assay IC50 [1] [μg extract/mL] | Superoxide Anion Radical Scavenging Assay IC50 [2] [μg extract/mL] | Plasmid Relaxation Assay IC50 [3] [μg extract/mL]
C/C=C(/C=O)[C@@H](CC=O)CC(=O)OCCc1ccc(O)cc1 [GS19, (3S,4E)-4-formyl-3-(2-oxoethyl)-4-hexenoic acid 2-(4-hydroxyphenyl)ethyl ester, reference compound] | 38 | – | –
C/C=C1/[C@H](OC2OC(CO)C(O)C(O)C2O)OC=C(C(=O)O)[C@H]1CC(=O)OCCc1ccc(O)c(O)c1 (stereo in doubt) [GS6, (2S,4S,E)-4-(2-(3,4-dihydroxyphenethoxy)-2-oxoethyl)-3-ethylidene-2{[(2R,3S,4R,5R,6S)-3,4,5-trihydroxy-6-(hydroxymethyl)tetrahydro-2H-pyran-2-yl]oxy}-3,4dihydro-2H-pyran-5-carboxylic acid] | 8.2 | 23.2 | 5.94
C/C=C(/C=O)[C@@H](CC=O)CC(=O)OCCc1ccc(O)c(O)c1 [GS17, (3S,4E)-4-formyl-3-(2-oxoethyl)-4-hexenoic acid 2-(3,4-dihydroxyphenyl)ethyl ester, reference compound] | 8 | – | 9.5
C/C=C1/[C@H](O[C@@H]2O[C@H](CO)[C@@H](O)[C@H](O)[C@H]2O)OC=C(C(=O)OC)[C@H]1CC(=O)OCCc1ccc(O)c(O)c1 [GS1, oleuropein] | 20.9 | 40.5 | 9.91
